Measured values: US10947242B2, “[1,2,4]triazolo[1,5and#8208;A]pyrimidine compounds as PDE2 inhibitors” (Janssen Pharmaceutica NV, priority 2016, dated 2021)
Read-outs that look alike come from different tables or passages of the source.

Columns and labels:
[1] = molecular target: T1, Human recombinant PDE2A (hPDE2A) (Homo sapiens, UniProt O00408); assay: In vitro assay PDE2A (SPA, 3H-cGMP hydrolysis); assay type: biochemical; details: for Emax: read-out: hPDE2A Emax
T1 construct: His tag (inferred from metal chelate purification); made in house; host or cells: Sf9 insect cells (baculovirus)

[2] = molecular target: T2, Human recombinant PDE10A (hPDE10A) (Homo sapiens, UniProt Q9Y233); assay: In vitro assay PDE10A, human clone (SPA, 3H-cAMP hydrolysis); assay type: biochemical
T2 construct: His tag (inferred from metal chelate purification); made in house; host or cells: Sf9 insect cells (baculovirus)
How it was run: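 Human recombinant PDE10A was expressed in Sf9 cells via baculovirus and incubated with compound in 50 mM Tris pH 7.8, 8.3 mM MgCl2, 1.7 mM EGTA. Substrate was 60 nM cAMP plus 0.008 μCi 3H-cAMP for 60 min at room temperature, read by SPA scintillation counting. Controls used 1% DMSO, and blanks omitted enzyme.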

[3] = molecular target: T3, Human recombinant PDE3A (hPDE3A) (Homo sapiens, UniProt Q14432); assay: In vitro assay PDE3A (SPA, 3H-cAMP hydrolysis); assay type: biochemical; details: for IC50: hPDE3B pIC50, read-out: pIC50 (converted); for Emax: read-out: hPDE3B Emax, read-out: Emax;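 on all read-outs here: the method names PDE3A and the table heading PDE3B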
T3 construct: purchased Scottish Biomedical; host or cells: Sf9 insect cells
How it was run: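 Human PDE3A, cloned from brain, as partially purified Sf9 lysate. Substrate 0.4 μM cAMP plus [3H]-cAMP (2.4 μCi/ml final) in 50 mM Tris pH 7.8, 8.3 mM MgCl2, 1.7 mM EGTA, 60 min at room temperature, 1% DMSO final. Hydrolysis read by SPA scintillation counting against no-enzyme blanks and DMSO controls.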

PDE2A = molecular target: T4, PDE2A (Rattus norvegicus, UniProt Q01062); assay: PDE2 occupancy by test compounds, ex-vivo autoradiography with [3H]B-17a; assay type: in vivo, Male Wistar rats; details: po, 10 mg/kg, route PO (oral), percentage receptor occupancy, ex-vivo autoradiography, striatum
T4 construct: Twenty μm-thick striatal sections were cut; from tissue; host or cells: rat brain, striatal sections
T4 sequence (Q01062 1-928): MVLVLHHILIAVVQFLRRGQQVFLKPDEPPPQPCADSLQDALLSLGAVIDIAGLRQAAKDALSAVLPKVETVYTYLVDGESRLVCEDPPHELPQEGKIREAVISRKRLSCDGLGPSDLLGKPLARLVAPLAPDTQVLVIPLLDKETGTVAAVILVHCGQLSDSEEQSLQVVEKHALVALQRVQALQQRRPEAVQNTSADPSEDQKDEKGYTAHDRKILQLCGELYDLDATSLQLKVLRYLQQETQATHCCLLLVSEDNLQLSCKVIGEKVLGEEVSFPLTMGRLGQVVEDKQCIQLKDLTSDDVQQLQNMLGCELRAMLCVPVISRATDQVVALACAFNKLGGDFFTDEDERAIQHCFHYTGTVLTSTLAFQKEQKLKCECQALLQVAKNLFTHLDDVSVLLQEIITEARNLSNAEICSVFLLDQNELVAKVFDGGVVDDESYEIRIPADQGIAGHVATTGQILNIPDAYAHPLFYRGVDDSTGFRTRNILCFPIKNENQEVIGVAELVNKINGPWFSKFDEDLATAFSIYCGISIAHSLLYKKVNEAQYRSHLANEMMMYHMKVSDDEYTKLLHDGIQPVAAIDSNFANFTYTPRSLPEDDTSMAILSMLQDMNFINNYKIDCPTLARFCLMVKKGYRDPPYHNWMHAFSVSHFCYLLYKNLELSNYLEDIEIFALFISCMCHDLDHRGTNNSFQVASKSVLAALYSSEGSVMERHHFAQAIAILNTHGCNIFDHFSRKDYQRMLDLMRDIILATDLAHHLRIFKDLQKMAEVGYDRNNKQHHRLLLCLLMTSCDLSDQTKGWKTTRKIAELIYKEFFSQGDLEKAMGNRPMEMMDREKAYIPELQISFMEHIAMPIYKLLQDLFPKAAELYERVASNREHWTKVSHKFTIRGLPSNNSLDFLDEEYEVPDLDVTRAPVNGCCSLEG

[4] = human recombinant PDE2A, 10 μM cGMP substrate, read-out: hPDE2A pIC50 (converted)
[5] = read-out: hPDE2A pIC50 (converted)
[6] = human clone (h), default, read-out: hPDE10A2 pIC50 (converted)
[7] = human clone (h), default, read-out: hPDE10A2 Emax
[8] = hPDE2A pIC50, human recombinant PDE2A, 10 μM cGMP substrate
[9] = human clone by default (no (r) mark), read-out: hPDE10A2 or rPDE10A2 Emax
[10] = human clone by default (no (r) mark), read-out: hPDE10A2 or rPDE10A2 pIC50 (converted)

T3 sequence (Q14432 whole entry): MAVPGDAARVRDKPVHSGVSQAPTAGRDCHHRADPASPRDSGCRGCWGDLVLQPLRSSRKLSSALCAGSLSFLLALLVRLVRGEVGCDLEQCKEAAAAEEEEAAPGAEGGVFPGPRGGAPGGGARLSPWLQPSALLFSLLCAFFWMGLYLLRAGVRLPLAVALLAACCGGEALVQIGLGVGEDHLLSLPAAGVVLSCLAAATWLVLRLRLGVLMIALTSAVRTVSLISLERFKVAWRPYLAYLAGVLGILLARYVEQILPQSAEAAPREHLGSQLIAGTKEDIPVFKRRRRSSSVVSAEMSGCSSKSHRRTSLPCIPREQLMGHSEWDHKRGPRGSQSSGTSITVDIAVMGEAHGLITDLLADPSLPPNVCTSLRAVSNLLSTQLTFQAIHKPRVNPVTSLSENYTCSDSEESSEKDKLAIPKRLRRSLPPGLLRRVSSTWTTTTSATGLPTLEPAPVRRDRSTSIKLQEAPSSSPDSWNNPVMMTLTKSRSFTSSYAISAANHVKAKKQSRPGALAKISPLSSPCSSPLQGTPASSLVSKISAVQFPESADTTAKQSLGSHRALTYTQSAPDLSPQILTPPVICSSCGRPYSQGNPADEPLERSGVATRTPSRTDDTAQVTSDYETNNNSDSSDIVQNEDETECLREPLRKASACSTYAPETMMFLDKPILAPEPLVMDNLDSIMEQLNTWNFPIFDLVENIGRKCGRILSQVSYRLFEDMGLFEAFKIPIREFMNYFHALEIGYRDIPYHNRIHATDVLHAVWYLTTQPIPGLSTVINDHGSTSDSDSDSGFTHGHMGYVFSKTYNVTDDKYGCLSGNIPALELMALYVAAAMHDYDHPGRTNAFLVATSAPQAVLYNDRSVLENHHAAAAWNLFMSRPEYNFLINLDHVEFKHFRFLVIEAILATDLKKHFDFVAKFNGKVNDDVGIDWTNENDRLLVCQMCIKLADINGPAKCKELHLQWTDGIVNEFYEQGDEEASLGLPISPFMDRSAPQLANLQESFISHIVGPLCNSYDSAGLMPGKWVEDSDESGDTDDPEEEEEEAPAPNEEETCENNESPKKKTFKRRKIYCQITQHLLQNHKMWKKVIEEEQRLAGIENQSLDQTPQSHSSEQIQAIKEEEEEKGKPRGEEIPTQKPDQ
T2 sequence (Q9Y233 267-1055): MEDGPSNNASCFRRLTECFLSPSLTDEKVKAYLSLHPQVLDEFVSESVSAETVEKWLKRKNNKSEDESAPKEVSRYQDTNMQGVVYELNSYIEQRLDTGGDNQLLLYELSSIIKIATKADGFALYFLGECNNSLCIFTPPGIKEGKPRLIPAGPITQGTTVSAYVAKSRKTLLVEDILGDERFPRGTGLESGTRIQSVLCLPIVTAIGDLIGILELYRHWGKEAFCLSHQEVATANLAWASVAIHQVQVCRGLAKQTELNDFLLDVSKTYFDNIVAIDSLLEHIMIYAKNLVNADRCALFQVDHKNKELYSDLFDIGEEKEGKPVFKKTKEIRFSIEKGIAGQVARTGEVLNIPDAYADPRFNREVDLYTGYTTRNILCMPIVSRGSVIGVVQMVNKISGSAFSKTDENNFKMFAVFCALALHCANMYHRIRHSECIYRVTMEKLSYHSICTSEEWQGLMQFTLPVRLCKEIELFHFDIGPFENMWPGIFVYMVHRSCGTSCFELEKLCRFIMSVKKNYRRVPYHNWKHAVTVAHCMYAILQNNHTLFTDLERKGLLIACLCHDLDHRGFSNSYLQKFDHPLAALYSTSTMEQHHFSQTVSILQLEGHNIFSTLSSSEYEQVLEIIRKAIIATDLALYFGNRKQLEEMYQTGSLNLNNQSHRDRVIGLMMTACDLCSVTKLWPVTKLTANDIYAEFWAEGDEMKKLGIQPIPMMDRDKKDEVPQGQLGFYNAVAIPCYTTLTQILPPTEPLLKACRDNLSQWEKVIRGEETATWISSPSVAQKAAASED
T1 sequence (O00408 whole entry): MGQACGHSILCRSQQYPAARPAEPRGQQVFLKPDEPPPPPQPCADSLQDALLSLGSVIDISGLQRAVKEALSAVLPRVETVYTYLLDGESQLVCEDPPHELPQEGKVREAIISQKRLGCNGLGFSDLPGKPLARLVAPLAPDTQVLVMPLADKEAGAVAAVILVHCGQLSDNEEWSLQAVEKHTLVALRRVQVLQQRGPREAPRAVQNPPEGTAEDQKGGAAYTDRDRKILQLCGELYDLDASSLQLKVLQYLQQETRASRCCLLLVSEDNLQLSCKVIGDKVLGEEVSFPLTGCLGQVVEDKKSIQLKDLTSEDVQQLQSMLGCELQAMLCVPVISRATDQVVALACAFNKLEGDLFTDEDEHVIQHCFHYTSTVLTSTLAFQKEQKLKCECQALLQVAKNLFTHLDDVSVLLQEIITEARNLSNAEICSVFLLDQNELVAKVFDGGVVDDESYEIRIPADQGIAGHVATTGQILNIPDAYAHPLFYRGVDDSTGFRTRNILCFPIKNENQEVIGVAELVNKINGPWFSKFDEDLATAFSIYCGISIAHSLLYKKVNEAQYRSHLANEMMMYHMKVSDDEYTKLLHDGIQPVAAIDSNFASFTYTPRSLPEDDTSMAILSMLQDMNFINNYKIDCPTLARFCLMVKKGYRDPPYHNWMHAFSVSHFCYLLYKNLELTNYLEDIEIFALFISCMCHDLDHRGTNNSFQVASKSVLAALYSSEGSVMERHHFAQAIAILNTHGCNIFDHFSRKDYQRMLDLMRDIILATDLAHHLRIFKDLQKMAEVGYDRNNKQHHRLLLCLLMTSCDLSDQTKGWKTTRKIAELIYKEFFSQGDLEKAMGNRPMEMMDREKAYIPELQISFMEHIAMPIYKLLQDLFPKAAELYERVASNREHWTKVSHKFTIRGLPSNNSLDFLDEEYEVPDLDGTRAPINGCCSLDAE

| melting point [°C] | IC50 [1, 4] [nM] | IC50 [1, 5] [nM] | IC50 [2, 6] [nM] | Emax ([1]; human recombinant PDE2A) [%] | Emax [1] [%] | Emax [2, 7] [%] | IC50 [3] [nM] | Emax [3] [%] | Emax [2, 9] [%] | IC50 [2, 10] [nM] | receptor occupancy at 10 mg/kg (PDE2A) [%] | Structure (SMILES) | hPDE2A Emax [1] | hPDE2A Emax ([1]; human recombinant PDE2A) | hPDE10A2 Emax ([2]; human clone (h), default) | hPDE3B Emax [3] | IC50 ([1]; hPDE2A pIC50) [nM] | IC50 [1, 8] [nM] |
| --- | --- | --- | --- | --- | --- | --- | --- | --- | --- | --- | --- | --- | --- | --- | --- | --- | --- | --- |
| 220.89 |  |  |  |  |  |  |  |  |  |  |  | Cn1ccc2c(F)c(C(=O)N3[C@H]4CC[C@H](c5cc(C(F)F)nc6ncnn56)[C@@H]3CC4)ccc21 |  |  |  |  |  |  |
| 145.73 | 1660 | 1660 | > 10000 | 39 | 39 | 16 | > 10000 | -1 |  |  |  | Cc1cc(C)cc(C(=O)N2CCC[C@](C)(c3cc(C(F)F)nc4ncnn34)C2)c1 (single isomer, unassigned) [Compound 206] |  |  |  |  |  |  |
| 173.79 | 7940 | 7940 | > 10000 | 21 | 21 | -5 | > 10000 | 2 |  |  |  | Cc1nn(C)cc1C(=O)N1CCC[C@](C)(c2cc(C(F)F)nc3ncnn23)C1 (single isomer, unassigned) [Compound 207] |  |  |  |  |  |  |
| 145.19 | 724 | 724 | > 10000 | 57 | 57 | 7 | > 10000 | 25 |  |  |  | C[C@]1(c2cc(C(F)F)nc3ncnn23)CCCN(C(=O)c2ccc3occc3c2)C1 (single isomer, unassigned) [Compound 209] |  |  |  |  |  |  |
| 195.81 | 617 | 617 | > 10000 | 56 | 56 | 16 | > 10000 | 5 |  |  |  | Cc1ccc(C(=O)N2CCC[C@](C)(c3cc(C(F)F)nc4ncnn34)C2)c(C)n1 (single isomer, unassigned) [Compound 210] |  |  |  |  |  |  |
| 117.5 | > 10000 | > 10000 | > 10000 | 3 | 3 | 10 | > 10000 | 13 |  |  |  | Cc1cc(C(=O)N2CCC[C@](C)(c3cc(C(F)F)nc4ncnn34)C2)cc(C)n1 (single isomer, unassigned) [Compound 211] |  |  |  |  |  |  |
| 188.75 | 0.977 | 0.977 | 38 | 100 | 100 | 99 | 1050 | 92 |  |  |  | C[C@@H]1CCN(C(=O)c2ccc(Cl)c(Cl)c2)C[C@H]1c1cc(C(F)F)nc2ncnn12 [Compound 111] |  |  |  |  |  |  |
| 179.82 | 1.66 | 1.66 | 74.1 | 101 | 101 | 99 | 955 | 92 |  |  |  | COc1cc(C(=O)N2CC[C@@H](C)[C@H](c3cc(C(F)F)nc4ncnn34)C2)ccc1C1CC1 [Compound 118] |  |  |  |  |  |  |
| 229.91 | 28.2 | 28.2 | 1350 | 100 | 100 | 84 | > 10000 | 35 |  |  |  | Cc1cc(C)nc(C(=O)N2CC[C@@H](C)[C@H](c3cc(C(F)F)nc4ncnn34)C2)c1 [Compound 137] |  |  |  |  |  |  |
| 167.52 | 18.6 | 18.6 | 263 | 99 | 99 | 97 | 4570 | 57 |  |  |  | C[C@@H]1CCN(C(=O)c2ccc(F)c(C(F)(F)F)c2)C[C@H]1c1cc(C(F)F)nc2ncnn12 [Compound 194] |  |  |  |  |  |  |
| 169.7 | 2340 | 2340 | > 10000 | 28 | 28 | 23 | > 10000 | 11 |  |  |  | Cc1csc(C(=O)N2CC[C@H](C)[C@@H](c3cc(C(F)F)nc4ncnn34)C2)c1 [Compound 213] |  |  |  |  |  |  |
| 122.37 |  |  |  |  |  |  |  |  |  |  |  | C[C@H]1CCN(C(=O)c2ccc3occc3c2)C[C@@H]1c1cc(C(F)F)nc2ncnn12 [Compound 221] |  |  |  |  |  |  |
| 247.4 |  | 2.95 | 162 |  | 99 | 95 | 7410 | 61 | 95 | 162 |  | Cc1cc([C@@H]2CN(C(=O)c3cc(Cl)ncc3Cl)CC[C@H]2C)n2ncnc2n1 [Compound 271] |  |  |  |  |  |  |
| 180.27 |  | 0.501 |  |  | 100 |  | 479 | 95 | 99 | 18.6 |  | C[C@@H]1CCN(C(=O)c2ccc3ncccc3c2)C[C@H]1c1cc(C(F)F)nc2ncnn12 [Compound 322] |  |  |  |  |  |  |
| 204.06 |  | 0.851 |  |  | 100 |  | 263 | 97 | 100 | 66.1 |  | C[C@@H]1CCN(C(=O)c2cnc3ccccc3c2)C[C@H]1c1cc(C(F)F)nc2ncnn12 [Compound 324] |  |  |  |  |  |  |
| 226.36 |  | 1.15 |  |  | 100 |  | 309 | 98 | 98 | 64.6 |  | C[C@@H]1CCN(C(=O)c2cnc3c(F)cccc3c2)C[C@H]1c1cc(C(F)F)nc2ncnn12 [Compound 325] |  |  |  |  |  |  |
| 194.86 |  | 0.417 |  |  | 101 |  | 77.6 | 99 | 100 | 20.4 |  | C[C@@H]1CCN(C(=O)c2ccc3c(ccn3C)c2)C[C@H]1c1cc(C(F)F)nc2ncnn12 [Compound 327] |  |  |  |  |  |  |
| 227.79 |  | 0.55 |  |  | 100 |  | 204 | 95 | 100 | 21.4 |  | C[C@@H]1CCN(C(=O)c2cnc3c(Cl)cccc3c2)C[C@H]1c1cc(C(F)F)nc2ncnn12 [Compound 329] |  |  |  |  |  |  |
|  |  | 4.9 |  |  | 99 |  | 5250 | 67 | 95 | 589 | 29 | COc1cc(C(=O)N2CC[C@@H](C)[C@H](c3cc(C(F)F)nc4ncnn34)C2)c(F)c(C)n1 [Compound 398] |  |  |  |  |  |  |

| Structure (SMILES) | melting point [°C] | IC50 [1, 4] [nM] | IC50 [1, 5] [nM] | IC50 [2, 6] [nM] | Emax ([1]; human recombinant PDE2A) [%] | Emax [1] [%] | Emax [2, 7] [%] | IC50 [3] [nM] | Emax [3] [%] | Emax [2, 9] [%] | IC50 [2, 10] [nM] | receptor occupancy at 10 mg/kg (PDE2A) [%] | hPDE2A Emax [1] | hPDE2A Emax ([1]; human recombinant PDE2A) | hPDE10A2 Emax ([2]; human clone (h), default) | hPDE3B Emax [3] | IC50 ([1]; hPDE2A pIC50) [nM] | IC50 [1, 8] [nM] |
| --- | --- | --- | --- | --- | --- | --- | --- | --- | --- | --- | --- | --- | --- | --- | --- | --- | --- | --- |
| Cc1cc(C(=O)N2[C@H]3CC[C@H](c4cc(C(F)F)nc5ncnn45)[C@@H]2CC3)cc(C)n1 (racemic) [Compound 31] | 190.16 | 2.51 | 2.51 | 1120 |  |  |  |  |  |  |  |  | 100 | 100 | 84 | 8 |  |  |
| Cc1cc(C(=O)N2CC[C@@H](C)[C@H](c3cc(C)nc4ncnn34)C2)cc(C2CC2)n1 [Compound 23] | 169.13 |  |  | 7.08 |  | 101 | 100 | 1050 | 90 |  |  |  |  |  |  |  | 0.468 | 0.468 |
| Cc1cc(C)cc(C(=O)N2CC[C@H](C)[C@@H](c3cc(C(F)F)nc4ncnn34)C2)c1 [Compound 214] | 203.97 |  |  | > 10000 |  | 9 | 30 | > 10000 | 9 | 30 | > 10000 |  |  |  |  |  | 6310 | 6310 |
